Data taken from patent US20260241046A1, “PROSTATE-SPECIFIC MEMBRANE ANTIGEN RECEPTOR-TARGETING RADIOPHARMACEUTICALS AND USES THEREOF” (Nuclidium AG, priority 2024, published 2026).
Entries after “also recorded” stand apart in the source; their conditions may differ.

Assays:
LNCaP cells = assay: In vitro efflux rate; assay type: cell-based, human; conditions: for Cell-associated fraction, With competitor: 100-fold excess DOTAGA-PSMA I&T
Protocol: Efflux-rate assays were performed on 6-well plates pre-treated with poly-L-lysine to promote adhesion. The plated cells were incubated with [^61Cu]Cu-NODAGA-PSMA I&T (100 μL, 0.5 nM) at 37° C. For non-specific uptake measurement, 100 μL of 2-PMPA (10 μM) was added to some wells. After 1 h, the cell-released fraction was collected by removing the medium and washing it twice with PBS. Then, the cells were incubated at 37° C. in a fresh medium for up to 180 min. At each time point, the medium was removed and replaced by fresh pre-warmed (37° C.) medium. At the end of the experiment, the cells were detached with 1 M sodium hydroxide and collected to determine the remaining cell-binding [^61Cu]Cu-NODAGA-PSMA I&T. The different fractions were quantified using a γ-counter (Cobra II, Packard A Canberra) and represented as a percentage of the applied radioactivity.
The experiment was also performed in the presence of a competitor (100-fold excess DOTAGA-PSMA I&T) to obtain a “rebinding free” system. The presence of the competitor prevented any rebinding of [^61Cu]Cu-NODAGA-PSMA I&T that dissociates faster. The values were calculated as a percentage of the cell-associated fraction (surface-bound and internalized fraction), subtracting the non-specific uptake (measured in the presence of 10 μM 2-PMPA).

LNCaP xenografted mice [1] = assay: Biodistribution studies in LNCaP xenografted mice; assay type: in vivo
Protocol: (§1) Unless otherwise specified, the in vivo studies were performed on athymic nude Foxn1^nu 4-6-week-old mice. Animals were injected in the shoulder with LNCaP cells (10^7 cells/200 μL) suspended in 1:1 (v: v) EMEM EBS medium and Matrigel. The in vivo experiments were performed when tumors reached a volume between 100-500 mm^3. At the intervention, all mice were between 7 and 11 weeks old. All animal experiments were performed following the guidelines for the use of living animals in scientific studies and the Swiss regulations for the protection of animals.
Quantitative biodistribution studies were performed on LNCaP xenografted mice to determine the distribution of [^61Cu]Cu-NODAGA-PSMA I&T following i.v. injection into the tail vein. The dose of the administered radiopharmaceutical was between 1.5-3.5 MBq ([…]) diluted to 100 μL with saline solution. The mice were divided into two groups of eight (5 males and 3 females) and euthanized at 1- and 4-hours post-injection. The organs of interest were then collected, rinsed, blotted, weighed, and analyzed in a gamma counter. The results were expressed as the percentage of injected activity per gram of tissue (% IA/g) and reported as mean±standard deviation in Table 25.

LNCaP xenografted mice [2] = assay: PET/CT imaging in mice; assay type: in vivo
Protocol: as §1
LNCap xenografted mice were injected i.v. into the tail vein with 4-8 MBq (400 pmol) of [^61Cu]Cu-NODAGA-PSMA I&T diluted in 100 μL saline solution. Dynamic PET scans were acquired for 1 hour upon injection of the radiotracer. The mice were euthanized using carbon dioxide at 4 hours post-injection, the bladder was mechanically emptied, and static PET scans were acquired for 30 min. PET images were obtained using the β-CUBE PET scanner system (MOLECUBES, Gent, Belgium) and were decay corrected and reconstructed with the VivoQuant software version 4.0. Tomograms and helical CT scans of the whole mouse were first acquired using a NanoSPECT/CTTM scanner (Bioscan Inc.). CT images were reconstructed using CTReco (version r1.146), resulting in a pixel size of 0.2 mm. […]

PSMA-expressing tumors = target: T1, PSMA-expressing tumors (Homo sapiens, UniProt Q04609); assay: First-in-human PET/CT study; assay type: in vivo; conditions: 104 MBq i.v., imaging at 3 hours, patient with metastatic prostate cancer
T1 construct: administered intravenously to a patient with known metastatic prostate cancer; from tissue; host or cells: osseous and hepatic metastases of a patient with metastatic prostate cancer
Protocol: A [^61Cu]Cu-NODAGA-PSMA I&T dose of 104 MBq (2.81 mCi) was administered intravenously to a patient with known metastatic prostate cancer. The patient was co-injected with 10 mg furosemide (Lasix®, Sanofi-Aventis, Frankfurt, Germany).
Imaging was performed at 3 hours following radiotracer administration on a Biograph Vision 600 (Siemens, Germany) PET/CT scanner. Images were obtained from the skull to mid-thigh and reconstructed into multiplanar PT, CT, and fused PET/CT images. CT was used for attenuation correction.

T1 sequence (Q04609 whole entry): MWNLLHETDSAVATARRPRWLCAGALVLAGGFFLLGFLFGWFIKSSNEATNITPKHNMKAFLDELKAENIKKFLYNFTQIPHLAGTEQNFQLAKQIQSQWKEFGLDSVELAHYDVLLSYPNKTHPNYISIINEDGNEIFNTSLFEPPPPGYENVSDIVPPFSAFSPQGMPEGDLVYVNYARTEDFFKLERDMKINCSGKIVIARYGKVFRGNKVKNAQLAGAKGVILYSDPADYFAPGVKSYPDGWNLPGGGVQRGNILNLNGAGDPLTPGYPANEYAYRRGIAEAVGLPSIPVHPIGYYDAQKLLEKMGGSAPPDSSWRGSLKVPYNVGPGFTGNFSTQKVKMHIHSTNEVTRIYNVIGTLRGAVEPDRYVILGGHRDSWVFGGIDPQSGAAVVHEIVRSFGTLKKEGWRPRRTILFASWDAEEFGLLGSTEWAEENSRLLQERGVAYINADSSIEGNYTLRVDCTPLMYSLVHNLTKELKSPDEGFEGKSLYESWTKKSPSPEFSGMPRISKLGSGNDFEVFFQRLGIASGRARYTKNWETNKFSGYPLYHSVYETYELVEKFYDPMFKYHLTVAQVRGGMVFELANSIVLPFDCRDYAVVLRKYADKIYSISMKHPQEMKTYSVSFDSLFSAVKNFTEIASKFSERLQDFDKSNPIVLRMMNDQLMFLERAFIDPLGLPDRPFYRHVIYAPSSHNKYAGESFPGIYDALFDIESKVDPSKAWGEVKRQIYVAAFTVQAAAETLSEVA

## O=C([O-])CN1CCN(CC(=O)[O-])CCN([C@H](CCC(=O)N[C@H](Cc2ccc(O)c(I)c2)C(=O)N[C@H](Cc2ccccc2)C(=O)N[C@H](CCCCNC(=O)CCCCCCC(=O)NCCCC[C@H](NC(=O)N[C@@H](CCC(=O)O)C(=O)O)C(=O)O)C(=O)O)C(=O)O)CC1.[61Cu+2] [[^61Cu]Cu-NODAGA-PSMA I&T]
LNCaP cells; 10 min
  Cell-associated fraction, Without competitor: 83.8 ± 0.7%
  Cell-associated fraction, With competitor: 67.9 ± 1.1%
LNCaP cells; 20 min
  Cell-associated fraction, Without competitor: 73.5 ± 0.8%
  Cell-associated fraction, With competitor: 54.4 ± 0.7%
LNCaP cells; 30 min
  Cell-associated fraction, Without competitor: 65.2 ± 1.4%
  Cell-associated fraction, With competitor: 46.5 ± 0.4%
LNCaP cells; 45 min
  Cell-associated fraction, Without competitor: 57.0 ± 2.8%
  Cell-associated fraction, With competitor: 39.9 ± 0.6%
LNCaP cells; 60 min
  Cell-associated fraction, Without competitor: 51.3 ± 3.3%
  Cell-associated fraction, With competitor: 35.9 ± 0.9%
LNCaP cells; 90 min
  Cell-associated fraction, Without competitor: 45.0 ± 3.3%
  Cell-associated fraction, With competitor: 29.9 ± 1.1%
LNCaP cells; 120 min
  Cell-associated fraction, Without competitor: 40.0 ± 3.5%
  Cell-associated fraction, With competitor: 25.0 ± 0.5%
LNCaP cells; 150 min
  Cell-associated fraction, Without competitor: 35.4 ± 3.1%
  Cell-associated fraction, With competitor: 20.9 ± 0.4%
LNCaP cells; 180 min
  Cell-associated fraction, Without competitor: 31.5 ± 2.5%
  Cell-associated fraction, With competitor: 17.5 ± 0.5%
LNCaP xenografted mice [1]; 1 hour post-injection
  Biodistribution, Adrenal: 17.3±3.26 % IA/g
  Biodistribution, Blood: 0.28 ± 0.06 % IA/g
  Biodistribution, Bone: 2.73 ± 0.91 % IA/g
  Biodistribution, Heart: 0.45 ± 0.15 % IA/g
  Biodistribution, Intestine: 2.11 ± 0.78 % IA/g
  Biodistribution, Kidneys: 118±13 % IA/g
  Biodistribution, LNCaP-tumor: 14.0±5.0 % IA/g
  Biodistribution, Liver: 1.02 ± 0.28 % IA/g
  Biodistribution, Lung: 1.69 ± 0.45 % IA/g
  Biodistribution, Muscle: 1.12 ± 0.32 % IA/g
  Biodistribution, Pancreas: 0.97 ± 0.36 % IA/g
  Biodistribution, Salivary glands: 2.01±0.33 % IA/g
  Biodistribution, Spleen: 6.04±1.87 % IA/g
  Biodistribution, Stomach: 1.13 ± 0.20 % IA/g
  Tumor/Blood uptake ratio: 50
  Tumor/Kidney uptake ratio: 0.12
  Tumor/Liver uptake ratio: 14
  Tumor/Muscles uptake ratio: 13
  Tumor/Salivary gland uptake ratio: 7
LNCaP xenografted mice [1]; 4 hours post-injection
  Biodistribution, Adrenal: 8.32±2.87 % IA/g
  Biodistribution, Blood: 0.10±0.03 % IA/g
  Biodistribution, Bone: 1.34 ± 0.48 % IA/g
  Biodistribution, Heart: 0.22 ± 0.05 % IA/g
  Biodistribution, Intestine: 1.06 ± 0.50 % IA/g
  Biodistribution, Kidneys: 91±10 % IA/g
  Biodistribution, LNCaP-tumor: 10.7±3.3 % IA/g
  Biodistribution, Liver: 0.72 ± 0.11 % IA/g
  Biodistribution, Lung: 0.74 ± 0.19 % IA/g
  Biodistribution, Muscle: 0.50 ± 0.22 % IA/g
  Biodistribution, Pancreas: 0.45 ± 0.09 % IA/g
  Biodistribution, Salivary glands: 0.52±0.06 % IA/g
  Biodistribution, Spleen: 1.28 ± 0.39 % IA/g
  Biodistribution, Stomach: 0.66 ± 0.15 % IA/g
  Tumor/Blood uptake ratio: 107
  Tumor/Kidney uptake ratio: 0.12
  Tumor/Liver uptake ratio: 15
  Tumor/Muscles uptake ratio: 21
  Tumor/Salivary gland uptake ratio: 21
LNCaP xenografted mice [2]
  time of maximum accumulation in the tumor: 1 hour post-injection
  time of optimal tumor-to-background signal ratio: 4 hours post-injection
PSMA-expressing tumors
  radiotracer accumulation on PET/CT: multifocal osseous (arrows) and hepatic (arrowheads) metastases; also recorded: Radiotracer accumulation was noted in multifocal osseous and hepatic metastases
